Literature values, collected in patent US6723506B2, “Method of identifying PAX8-PPAR gamma-nucleic acid molecules” (Brigham and Women's Hospital, priority 2000, dated 2004).

System: PML-RAR (retinoic acid receptor α) translocation
Conditions: patients harboring the PML-RAR translocation

CC1=C(/C=C/C(C)=C/C=C/C(C)=C/C(=O)O)C(C)(C)CCC1 [all-trans retinoic acid]
remission in APML patients: induces remission in nearly every patient
